Experiments:
[1] = tested on: MiaPaca-2 cells (pancreatic cancer); experiment: Proliferation test method 1 (2D, MTT), MiaPaca-2; format: cell-based; details: Homo sapiens, MIA PaCa-2, 2D, 5-7 days, read-out: IC50/nM proliferation inhibitory activity on MiaPaca-2 cells
Method: Test method 1 (2D):NCI-H358 (lung cancer) and MiaPaca-2 cells (pancreatic cancer) cells (100 µL/well, 20,000 cells/mL) were inoculated in 96-well culture plates supplemented with 10% fetal bovine serum and 1% penicillin/streptomycin sulfate, respectively.Using 0.5% dimethyl sulfoxide as a blank control, cells were treated with a solution of the compound to be tested at a starting concentration of 10 µM, tripled diluted testing solution of the compound in eight gradients were used to treat cells, and then incubated in a 5% CO2 incubator for a certain period of time (5-7 days).At the end of incubation, 10 µL of MTT stock solution (5 mg/mL) was added to each well.The culture plates were incubated at 37° C. for 4 h and then the medium was removed.Dimethyl sulfoxide (100 µL) was added to each well and then shaken sufficiently. The absorbance of the product formazanwas measured at 570 nm on the Thermo Scientific Varioskan Flash multimode reader.IC50 values were obtained by fitting dose-response data into a three-parameter nonlinear regression model using GraphPad Prism 6.0 software.

[2] = tested on: transplanted tumor of MiaPaca-2, NCI-H358 tumor cells; experiment: Growth inhibition of transplanted tumor in nude mice; format: in vivo; details: 10 mg/kg orally, after two weeks of administration
Method: The tumor tissues in the peak growth period were cut into 1.5 mm^3 and inoculated into the right axillary subcutis of nude mice under aseptic conditions. The subcutaneous transplanted tumors of nude mice were measured by vernier calipers for the diameter of the transplanted tumors, and the animals were randomly grouped when the average volume of the tumors reached about 130 mm^3.The example compound (injection water containing 1% Tween 80 was prepared to the desired concentration and then left to be used) was administered orally at the given dose daily for three weeks, and the solvent control group was given an equal amount of solvent. The transplanted tumor diameter was measured twice a week throughout the experiment, and the mice were weighed at the same time.The tumor volume (TV) was calculated by the formula: TV = ½×a×b^2, where a and b are the length and width, respectively.

Row | SMILES | IC50 [1] [nM] | tumor regression [2]
1 | C=CC(=O)N1C[C@@H]2C(=O)N(C)c3cnc4c(F)c(-c5ccc(F)c6sc(N)nc56)c(Cl)cc4c3N2C[C@H]1C (single isomer, unassigned) [Example 17-1] | 24.8 | –
2 | C=CC(=O)N1CCN(c2c(C#N)cnc3c(F)c(-c4ccc(F)c5sc(N)nc45)c(Cl)cc23)CC1 [Example 8] | – | tumor regression was achieved
